Here are results for 3 molecules from publication PMC10250785, “Aromatic oligoesters as novel helix mimetic scaffolds” (Bioorganic & Medicinal Chemistry, 2023).

Some results are limits rather than exact numbers.

Data set [1] can be described thus: Aqueous stability of dimers in buffered pH solutions (TLC, LCMS/HPLC UV). Format: physicochemical. The conditions noted are these: r.t.; for remaining at 168 h, 5 mg/mL: bicarbonate buffer pH 12.5 / acetonitrile (1:1), pH 12.5 (bicarbonate) buffer, 50% MeCN: buffer, 5 mg/mL dimer, after 7 days, from HPLC UV traces. On the procedure: Human serum pH is tightly regulated around 7.4, with intracellular pH controlled between pH 6.0–7.2, and gastric pH between 1.4–3.5.[37] […] Given the prevalence of ester linkages in pro-drug structures[38] and the facile hydrolysis of esters in aqueous media, the stability of our scaffold was a concern. We therefore investigated the stability of dimers 25 and 29 over extended periods of time in aqueous solution from pH2.5–12.5. To monitor dimer stability over time, 10 mM pH buffer solutions of: 2.5(acetate), 5.0(acetate), 7.4 (phosphate-buffered saline), 10.0 (bicarbonate), and 12.5 (bicarbonate) were selected, to obtain a pH range similar to those present within the human body. Since both dimers are insoluble in water, they were firstly dissolved in acetonitrile, before addition to the buffered solutions to form a 5 mg/mL dimer solution (50% MeCN: buffer). Degradation was monitored via TLC over time, and the final solution composition was determined by LCMS after 7 days (Fig 3 and Figure S3).
Fig. 3 Dimers 25 and 29 were incubated for 7 days in a range of buffered pH solutions and % dimer remaining measured by integration of UV peaks from an HPLC Diode array trace.
To pre-prepared 100 mM pH buffer solutions (1.00 mL), including pH 2.5, 5.0, 7.4, 10.0 and 12.5 (Table 2), was added the dimer (10 mg/mL in MeCN) at r.t, forming a final solution with dimer concentration 5 mg/mL. The mixture was stirred at r.t. for 7 days and monitored via TLC and LCMS (50% MeCN) to follow ester bond degradation.

A word on the melting point: it is the temperature of the solid-liquid transition. In turn, `C=CCOc1ccc(C(=O)OC)cc1O` [Compound 1, Methyl 4-(allyloxy)-3-hydroxybenzoate] showed a melting point of 67 to 68 °C. In general, fraction remaining refers to what is left of the initial amount, in per cent. Higher therefore signals less turnover. `C=CCOc1ccc(C(=O)Oc2ccc(C(=O)OC)cc2OC(C)C)cc1OC(C)C` [Compound 25, 2-isopropoxy-4-(methoxycarbonyl)phenyl 4-(allyloxy)-3-isopropoxybenzoate] came in with a share remaining at 168 h, 5 mg/mL in data set [1] of 6%. Moreover, the “time before ester hydrolysis occurs” value in data set [1] (pH 12.5, 50% MeCN: buffer) was greater than 5 days. In the case of `COC(=O)c1ccc(OC(=O)c2ccc(O)c(OC)c2)c(OC)c1` [Compound 29, 2-methyoxy-4-(methoxycarbonyl)phenyl 4-hydroxy-3-methoxybenzoate], the amount remaining at 168 h, 5 mg/mL in data set [1] was found to be 49%.
